Earlier results as cited in patent publication US20240082270A1 (priority 2021, published 2024).

Tested on: live SARS-CoV-2

SMILES | effectiveness against variants
C=C(C)[C@@H]1CCC(C)=C[C@H]1c1c(O)cc(CCCCC)c(C(=O)O)c1O [CBDA] | equally effective
CCCCCc1cc(O)c(C/C=C(\C)CCC=C(C)C)c(O)c1C(=O)O [CBGA, cannabigerolic acid] | equally effective
